Experimental findings from patent US20250228239A1, “MOLECULES HAVING PESTICIDAL UTILITY, AND INTERMEDIATES, COMPOSITIONS, AND PROCESSES, RELATED THERETO” (priority 2024, published 2025) are described below.

Where two headings read alike, the source gives them in different places.

What all share (assay type): in vivo
Series [1] deals with Green Peach Aphid (Myzus persicae, MYZUPE). Kind of series: Bioassays on Green Peach Aphid (GPA), foliar spray on cabbage seedlings. As to conditions: 72 h. The procedure: Certain molecules disclosed in this document were tested against GPA using procedures described in the following example. In the reporting of the results, the “GPA & YFM Rating Table” was used (See Table Section).
Cabbage seedlings grown in 3-inch pots, with 2-3 small (3-5 cm) true leaves, were used as test substrate. The seedlings were infested with 20-50 GPA (wingless adult and nymph stages) one day prior to chemical application. Four pots with individual seedlings were used for each treatment. Test molecules (2 mg) were dissolved in 2 mL of acetone/methanol (1:1) solvent, forming stock solutions of 1000 ppm test molecule. The stock solutions were diluted 5× with 0.025% Tween 20 in water to obtain the solution at 200 ppm test molecule. A hand-held aspirator-type sprayer was used for spraying a solution to both sides of […] leaves until runoff. Reference plants (solvent check) were sprayed with the diluent only containing 20% by volume of acetone/methanol (1:1) solvent. Treated plants were held in a holding room for three days at approximately 25° C. and ambient relative humidity (RH) prior to grading. Evaluation was conducted by counting the number of live aphids per plant under a microscope. Percent control was measured using Abbott's correction formula (W. S. Abbott, “A Method of Computing the Effectiveness of an Insecticide” J. Econ. Entomol. 18 (1925), pp. 265-267) as follows. Corrected % Control=100*(X−Y)/X where X=No. of live aphids on solvent check plants and Y=No. of live aphids on treated plants. The results are indicated in the table entitled “Table ABC: Biological Results” (See Table Section).

Series [2] concerns Yellow Fever Mosquito (Aedes aegypti, AEDSAE). Summed up: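 Rating-scale grades reflect larval mortality scored per well after 3 days at room temperature under non-evaporative lids. Larvae (~1 day old, hatched overnight in liver-powder water) were added to six daughter plates per compound, prepared from a 4000 ppm DMSO stock diluted in 90:10 water/acetone.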
Series [3] deals with Cabbage Looper (Trichoplusia ni, TRIPNI). Kind of series: Bioassays on Cabbage Looper (CL), 128-well diet tray assay. Conditions: Trichoplusia ni. Summed up: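 Each of eight wells receives artificial diet treated at 50 μg/cm^2 with the test molecule, then one to five second-instar larvae. Incubation runs five to seven days at 25° C with a 14:10 light-dark cycle under vented covers. Mortality is scored per well as a percentage and averaged.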

For series [4], the system named is Beet Armyworm (Spodoptera exigua, LAPHEG). Description: Bioassays on Beet Armyworm (BAW), 128-well diet tray assay. Conditions: Spodoptera exigua. Summed up: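 Percent larval mortality, averaged across eight wells, scored after five to seven days at 25° C. under 14:10 light-dark. Each well held one to five second instars feeding on diet dosed at 50 μg/cm^2 with compound from 90:10 acetone-water, solvent dried off.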

Where [5] appears, read: Green Peach Aphid, rating class, read-out: GPA.
Where [6] appears, read: Yellow Fever Mosquito, rating class.
Where [7] appears, read: Cabbage Looper, rating class, read-out: CL.
[8] abbreviates: Beet Armyworm, rating class, read-out: BAW.
Where [9] appears, read: Table ABC: Biological Results, species GPA, read-out: GPA.
Setting [10] is: Table ABC: Biological Results, species YFM.
Where [11] appears, read: Table ABC: Biological Results, species CL, read-out: CL.
Setting [12] is: Table ABC: Biological Results, species BAW, read-out: BAW.

For the compound `O=C(Nc1ccc(F)c(NC(=O)C2CCCO2)c1F)c1cc(NC(=O)[C@H]2[C@H](c3ccc(F)c(Cl)c3)C2(Cl)Cl)ccc1Cl` (stereo partly drawn) [F1699, N-(3-(2-Chloro-5-((1R,3R)-2,2-dichloro-3-(3-chloro-4-fluorophenyl)cyclopropane-1-carboxamido)benzamido)-2,6-difluorophenyl)tetrahydrofuran-2-carboxamide], the pest or weed control at 200 µg/mL in series [1] (setting [5]) lay in the range of 0 to 80%. In addition, in series [2] (setting [6]), the YFM entry is on record as “B (More than 0 – Less than 80)”. The pest or weed control at 50 µg/cm2 in series [3] (setting [7]) and in series [4] (setting [8]) was 50 to 100% throughout.

Turning to `O=C(Nc1ccc(F)cc1F)c1c(Cl)ccc(NC(=O)[C@H]2[C@H](c3ccc(F)c(Cl)c3)C2(Cl)Cl)c1Cl` (relative stereo) [F1105, trans-2,6-dichloro-3-(2,2-dichloro-3-(3-chloro-4-fluorophenyl)cyclopropane-1-carboxamido)-N-(2,4-difluorophenyl)benzamide], the pest or weed control at 200 µg/mL in series [1] (setting [9]) was 0 to 80%. For the same compound, the YFM entry in series [2] (setting [10]) was “A (80–100)”. Further, the pest or weed control at 50 µg/cm2 in series [3] (setting [11]) and in series [4] (setting [12]) was 50 to 100% in each case.

For the compound `Cc1cc(NC(=O)[C@H]2[C@H](c3ccc(F)c(Cl)c3)C2(Cl)Cl)cc(C(=O)Nc2ccc(F)cc2F)c1Cl` (relative stereo) [F1185, trans-2-Chloro-5-(2,2-dichloro-3-(3-chloro-4-fluorophenyl)cyclopropane-1-carboxamido)-N-(2,4-difluorophenyl)-3-methylbenzamide], in series [1] (setting [9]), the pest or weed control at 200 µg/mL fell in the range of 80 to 100%. Besides, the YFM entry in series [2] (setting [10]) is on record as “A (80–100)”. Besides, the pest or weed control at 50 µg/cm2 in series [3] (setting [11]) and in series [4] (setting [12]) was 50 to 100% each time.

Turning to `O=C(COC(F)(F)F)Nc1c(F)ccc(NC(=O)c2cc(NC(=O)[C@H]3[C@H](c4ccc(F)c(C(F)(F)F)c4)C3(Cl)Cl)ccc2Cl)c1F` [F1742, 2-Chloro-5-((1R,3R)-2,2-dichloro-3-(4-fluoro-3-(trifluoromethyl)phenyl)cyclopropane-1-carboxamido)-N-(2,4-difluoro-3-(2-(trifluoromethoxy)acetamido)phenyl)benzamide], the pest or weed control at 200 µg/mL in series [1] (setting [5]) was 0 to 80%. Further, the YFM entry in series [2] (setting [6]) is recorded as “A (80–100)”. Further, the pest or weed control at 50 µg/cm2 in series [3] (setting [7]) and in series [4] (setting [8]) was 50 to 100% in each case.

In the case of `O=C(Nc1ccc(F)cc1F)c1cc(NC(=O)[C@H]2[C@H](c3cc(Cl)c(Cl)c(Br)c3)C2(Cl)Cl)ccc1Cl` (relative stereo) [F1007, trans-5-(3-(3-Bromo-4,5-dichlorophenyl)-2,2-dichlorocyclopropane-1-carboxamido)-2-chloro-N-(2,4-difluorophenyl)benzamide], the pest or weed control at 200 µg/mL in series [1] (setting [9]) lay within 80 to 100%. The YFM result in series [2] (setting [10]) is given as “A (80–100)”. Also, the pest or weed control at 50 µg/cm2 in series [3] (setting [11]) and in series [4] (setting [12]) was 50 to 100% each time.

Consider `CCCC(=O)Nc1c(F)ccc(NC(=O)c2cc(NC(=O)[C@H]3[C@H](c4cc(Cl)c(Cl)c(Cl)c4)C3(Cl)Cl)ccc2Cl)c1F` [F1655, N-(3-Butyramido-2,4-difluorophenyl)-2-chloro-5-((1R,3R)-2,2-dichloro-3-(3,4,5-trichlorophenyl)cyclopropane-1-carboxamido)benzamide], for which the pest or weed control at 200 µg/mL in series [1] (setting [5]) lay in the range of 0 to 80%. Besides, the YFM result in series [2] (setting [6]) is “B (More than 0 – Less than 80)”. Moreover, the pest or weed control at 50 µg/cm2 in series [3] (setting [7]) and in series [4] (setting [8]) was 50 to 100% in each case.

For `CN(C(=O)C(F)(F)C(F)(F)F)c1c(F)ccc(NC(=O)c2cc(NC(=O)[C@H]3[C@H](c4ccc(Cl)c(Cl)c4)C3(Cl)Cl)ccc2Cl)c1F` [F1615, 2-Chloro-5-((1R,3R)-2,2-dichloro-3-(3,4-dichlorophenyl)cyclopropane-1-carboxamido)-N-(2,4-difluoro-3-(2,2,3,3,3-pentafluoro-N-methylpropanamido)phenyl)benzamide], the pest or weed control at 200 µg/mL in series [1] (setting [5]) was in the range of 0 to 80%. Moreover, the YFM entry in series [2] (setting [6]) is recorded as “A (80–100)”. For the same compound, the pest or weed control at 50 µg/cm2 in series [3] (setting [7]) and in series [4] (setting [8]) was 50 to 100% in each case.

As a reminder, the mortality is the share of the test organisms that died. Take `Nc1c(F)ccc(NC(=O)c2cc(NC(=O)[C@H]3[C@H](c4ccc(F)c(C(F)(F)F)c4)C3(Cl)Cl)ccc2Cl)c1F` (relative stereo) [DP8, trans-N-(3-amino-2,4-difluorophenyl)-2-chloro-5-(2,2-dichloro-3-(4-fluoro-3-(trifluoromethyl)phenyl)cyclopropane-1-carboxamido)benzamide]: the mortality at 200 ppm in series [1] (200 ppm test molecule sprayed on infested cabbage seedlings, three days, Abbott's corrected % control, read-out: GPA % Control (or Mortality) rating) lay within 80 to 100%. In series [1] (Green Peach Aphid, Table ABC / ABC-DP rating, read-out: GPA rating), the pest or weed control at 200 µg/mL was 80 to 100%. Further, the YFM rating result in series [2] (Yellow Fever Mosquito, Table ABC / ABC-DP rating) is given as “A (80–100)”. Further, the “YFM % Control (or Mortality) rating” value in series [2] (about 1 day-old larvae, 4000 ppm master solution diluted with 90:10 water/acetone, 15 μL per well plus 220 μL larval mixture, 3 days, mortality) was “A (80–100)”. Further, the mortality at 50 µg/cm2 in series [3] (168 h, second instar larvae, 50 μg/cm^2 of test molecule on artificial diet, 25° C., five to seven days, average of eight wells, read-out: CL % Control (or Mortality) rating) lay within 50 to 100%; in series [4] (168 h, second instar larvae, 50 μg/cm^2 of test molecule on artificial diet, 25° C., five to seven days, average of eight wells, read-out: BAW % Control (or Mortality) rating), 50 to 100%. Moreover, the pest or weed control at 50 µg/cm2 in series [3] (Cabbage Looper, Table ABC / ABC-DP rating, read-out: CL rating) is 50 to 100%; in series [4] (Beet Armyworm, Table ABC / ABC-DP rating, read-out: BAW rating) it was 50 to 100%.

In the case of `O=C(Nc1ccc(F)c(NC(=O)C(F)(F)F)c1F)c1cc(NC(=O)[C@H]2[C@H](c3ccc(F)c(Cl)c3)C2(Cl)Cl)ccc1Cl` [F1695, 2-Chloro-5-((1R,3R)-2,2-dichloro-3-(3-chloro-4-fluorophenyl)cyclopropane-1-carboxamido)-N-(2,4-difluoro-3-(2,2,2-trifluoroacetamido)phenyl)benzamide], in series [1] (setting [5]), the pest or weed control at 200 µg/mL was 80 to 100%. The YFM entry in series [2] (setting [6]) is given as “B (More than 0 – Less than 80)”. For the same compound, the pest or weed control at 50 µg/cm2 in series [3] (setting [7]) and in series [4] (setting [8]) was 50 to 100% throughout.

Consider `Nc1c(F)ccc(NC(=O)c2cc(NC(=O)[C@H]3[C@H](c4ccc(F)c(Cl)c4)C3(Cl)Cl)cc(F)c2Cl)c1F` [F1255, N-(3-amino-2,4-difluorophenyl)-2-chloro-5-((1R,3R)-2,2-dichloro-3-(3-chloro-4-fluorophenyl)cyclopropane-1-carboxamido)-3-fluorobenzamide], for which the pest or weed control at 200 µg/mL in series [1] (setting [9]) was in the range of 80 to 100%. Further, the pest or weed control at 50 µg/cm2 in series [3] (setting [11]) and in series [4] (setting [12]) was 50 to 100% each time.

As to `O=C(Nc1ccc(F)c(NC(=O)C(F)F)c1F)c1cc(NC(=O)[C@H]2[C@H](c3ccc(F)c(Cl)c3)C2(Cl)Cl)cc(F)c1Cl` [F1256, 2-Chloro-5-((1R,3R)-2,2-dichloro-3-(3-chloro-4-fluorophenyl)cyclopropane-1-carboxamido)-N-(3-(2,2-difluoroacetamido)-2,4-difluorophenyl)-3-fluorobenzamide], the pest or weed control at 200 µg/mL in series [1] (setting [9]) lay within 80 to 100%. The pest or weed control at 50 µg/cm2 in series [3] (setting [11]) and in series [4] (setting [12]) was 50 to 100% each time.

As for `CCOC(C)C(=O)Nc1c(F)ccc(NC(=O)c2cc(NC(=O)[C@H]3[C@H](c4ccc(F)c(Cl)c4)C3(Cl)Cl)ccc2Cl)c1F` (stereo partly drawn) [F1698, 2-Chloro-5-((1R,3R)-2,2-dichloro-3-(3-chloro-4-fluorophenyl)cyclopropane-1-carboxamido)-N-(3-(2-ethoxypropanamido)-2,4-difluorophenyl)benzamide], in series [1] (setting [5]), the pest or weed control at 200 µg/mL was 0 to 80%. For the same compound, the pest or weed control at 50 µg/cm2 in series [3] (setting [7]) and in series [4] (setting [8]) was 50 to 100% in each case.

On to `O=C(Nc1c(F)cc(NC(=O)C(F)(F)F)cc1F)c1cc(NC(=O)[C@H]2[C@H](c3ccc(Cl)c(Cl)c3)C2(Cl)Cl)ccc1Cl` [F1261, 2-Chloro-5-((1R,3R)-2,2-dichloro-3-(3,4-dichlorophenyl)cyclopropane-1-carboxamido)-N-(2,6-difluoro-4-(2,2,2-trifluoroacetamido)phenyl)benzamide], for which the pest or weed control at 200 µg/mL in series [1] (setting [9]) lay within 80 to 100%. The pest or weed control at 50 µg/cm2 in series [3] (setting [11]) and in series [4] (setting [12]) was 50 to 100% in each case.
